Experimental data taken from US10077248B2, “Form of imazapyr, a process for its preparation and use the same” (priority 2015, dated 2018).

Assay type: physicochemical
Description: Samples prepared in Examples 4, and 5 were stored at 54° C. for 1 month, 3 months and 6 months. The procedures are followed according to CIPAC MT 46.3. The concentration of imazapyr was tested at the end of each storage time by high pressure liquid chromatography (HPLC). The aggregation was measured by observation. The original concentration of imazapyr in each formulation was 25%.

SMILES | storage stability / tendency of aggregation (in words)
CC(C)C1(C)N=C(c2ncccc2C(=O)O)NC1=O (racemic) [crystalline modification I of imazapyr, 2-[(RS)-4-isopropyl-4-methyl-5-oxo-2-imidazolin-2-yl]nicotinic acid] | significant increase in its storage stability
CC(C)C1(C)N=C(c2ncccc2C(=O)O)NC1=O (racemic) [imazapyr in amorphous state, 2-[(RS)-4-isopropyl-4-methyl-5-oxo-2-imidazolin-2-yl]nicotinic acid] | high tendency of aggregation after a long storage time
